Values quoted from earlier work as cited in the PKSmart pharmacokinetics tables (Seal et al. 2025).

Test: Lombardo, Berellini, Obach 2018, Drug Metab Dispos 46:1466, doi 10.1124/dmd.118.082966
Conditions: human; for MRT / Vd / clearance / half-life: in vivo, iv; for fraction unbound: plasma

For `CN1CC[C@]23CCCC[C@H]2[C@H]1Cc1ccc(O)cc13`, the MRT is listed as 12.2 h, the Vd is listed as 11.5 L/kg and the clearance is listed as 15.7 mL/min/kg. The half-life was 810 min and the fraction unbound was 0.6.
In the case of `Cc1nc(=O)c2cc(CN(C)c3ccc(C(=O)NC(CCC(=O)O)C(=O)O)s3)ccc2[nH]1` (stereo not drawn), the MRT is listed as 123 h, the Vd is listed as 6.57 L/kg and the clearance is listed as 0.9 mL/min/kg. For the same compound, the half-life was 8400 min and the fraction unbound was 0.05.
For `O[C@@H]1[C@@H](O)[C@@H](O)OC[C@H]1O`, the MRT is given as 1.9 h, the Vd is given as 0.23 L/kg and the clearance is given as 2.38 mL/min/kg. For the same compound, the half-life was 72 min.
For `O=C(NCCO[N+](=O)[O-])c1cccnc1`, the MRT is given as 2.7 h, the Vd is given as 1.4 L/kg and the clearance is given as 8.9 mL/min/kg. The half-life was 216 min and the fraction unbound was 0.76.
For `CN(C)C(=O)CCS[C@H](SCCC(=O)O)c1cccc(/C=C/c2ccc3ccc(Cl)cc3n2)c1`, the MRT is listed as 2.7 h, the Vd is listed as 0.11 L/kg and the clearance is listed as 0.68 mL/min/kg. The half-life was 138 min and the fraction unbound was 0.0004.
For `CCN1CCC[C@H]1CNC(=O)c1c(O)c(Cl)cc(Cl)c1OC`, the MRT is given as 15.3 h, the Vd is given as 1.1 L/kg and the clearance is given as 1.2 mL/min/kg. For the same compound, the half-life was 840 min and the fraction unbound was 0.06.
In the case of `COc1ccccc1Oc1c(NS(=O)(=O)c2ccc(C(C)C)cn2)nc(-c2ccnc(-c3nnn[nH]3)c2)nc1OCCO`, the Vd is given as 0.28 L/kg, the clearance is given as 8.1 mL/min/kg and the half-life is given as 228 min. The fraction unbound was 0.0085.
In the case of `CN(C)CCNC(=O)c1cccc2cc3ccccc3nc12`, the MRT is given as 3.49 h, the Vd is given as 3.41 L/kg and the clearance is given as 16.3 mL/min/kg. The half-life was 125 min and the fraction unbound was 0.03.
For `Cc1[nH]c(=O)c(C#N)cc1-c1ccc2nccn2c1`, the MRT is listed as 0.97 h, the Vd is listed as 0.64 L/kg and the clearance is listed as 11 mL/min/kg. The half-life was 67.8 min.
In the case of `O=C(O[C@H]1C[C@H]2CC3C[C@@H](C1)N2CC3=O)c1c[nH]c2ccccc12`, the MRT is listed as 0.19 h, the Vd is listed as 2 L/kg and the half-life is listed as 7.8 min. For the same compound, the fraction unbound was 0.49.
For `C=C1CC[C@@]2(O)[C@H]3Cc4ccc(O)c5c4[C@@]2(CCN3CC2CC2)[C@H]1O5`, the fraction unbound is listed as 0.65.
For `CCCc1nc(C(C)(C)O)c(C(=O)O)n1Cc1ccc(-c2ccccc2-c2nnn[nH]2)cc1`, the clearance is given as 0.29 mL/min/kg and the half-life is given as 648 min.
In the case of `CC1(C)S[C@@H]2C(NC(=O)Cc3ccccc3)C(=O)N2C1C(=O)O` (stereo partly drawn), the MRT is listed as 0.58 h, the Vd is listed as 0.24 L/kg and the clearance is listed as 6.9 mL/min/kg. For the same compound, the half-life was 42 min and the fraction unbound was 0.4.
For `Cc1cnc(NCCCN(C)C)c2c1[nH]c1ccc3cc(O)ccc3c12`, the MRT is listed as 11 h, the Vd is listed as 11 L/kg and the clearance is listed as 18 mL/min/kg. For the same compound, the half-life was 1140 min.
For `CN1CC[C@H](c2c(O)cc(O)c3c(=O)cc(-c4ccccc4Cl)oc23)[C@H](O)C1`, the MRT is listed as 4 h, the Vd is listed as 1.5 L/kg and the clearance is listed as 6.1 mL/min/kg. For the same compound, the half-life was 312 min and the fraction unbound was 0.06.
For `CN[C@@H]1[C@@H](O)[C@@H](O[C@@H]2[C@@H](O)[C@H](O[C@H]3O[C@H](CN)[C@@H](O)[C@H](O)[C@H]3O)[C@@H](N)C[C@H]2NC(=O)C(O)CN)OC[C@]1(C)O` (stereo partly drawn), the MRT is given as 4.1 h, the clearance is given as 1.3 mL/min/kg and the half-life is given as 1440 min. The fraction unbound was 0.95.
In the case of `COc1c2occc2cc2ccc(=O)oc12`, the MRT is listed as 0.88 h, the Vd is listed as 0.61 L/kg and the fraction unbound is listed as 0.09.
For `CC(=O)OCC1=C(C(=O)O)N2C(=O)C(NC(=O)Cc3cccs3)[C@H]2SC1` (stereo partly drawn), the MRT is listed as 0.65 h, the Vd is listed as 0.07 L/kg and the clearance is listed as 1.8 mL/min/kg. The half-life was 57 min and the fraction unbound was 0.22.
For `COc1ccsc1CNCC[C@@]1(c2ccccn2)CCOC2(CCCC2)C1`, the MRT is listed as 1.9 h, the Vd is listed as 0.78 L/kg and the clearance is listed as 6.89 mL/min/kg. The half-life was 108 min.
In the case of `Cc1[nH]c(=O)c(C#N)cc1-c1ccncc1`, the MRT is given as 0.67 h, the Vd is given as 0.25 L/kg and the clearance is given as 6.2 mL/min/kg. The half-life was 48 min.
For `CS(=O)(=O)c1ccc(C2=C(c3ccccc3)C(=O)OC2)cc1`, the MRT is listed as 10.8 h, the Vd is listed as 1.3 L/kg and the clearance is listed as 2 mL/min/kg. The half-life was 450 min and the fraction unbound was 0.13.
For `C[C@@H](O)C1C(=O)N2C(C(=O)O)=C(S[C@H]3CC(C(=O)N4CC[C@H](NC(=O)CNC(=N)N)C4)N(C)C3)[C@H](C)[C@H]12` (stereo partly drawn), the MRT is listed as 2 h, the Vd is listed as 0.23 L/kg and the clearance is listed as 1.9 mL/min/kg. The half-life was 102 min and the fraction unbound was 0.91.
In the case of `O=C1CN=C(c2ccccc2Cl)c2cc(Br)ccc2N1`, the MRT is listed as 28.3 h, the Vd is listed as 0.089 L/kg and the clearance is listed as 0.05 mL/min/kg. The half-life was 893 min.
For `CC(C)(C)NC[C@@H](O)COc1cccc2c1CCC(=O)N2`, the clearance is given as 10.1 mL/min/kg and the half-life is given as 282 min.
In the case of `Cc1onc(-c2c(Cl)cccc2Cl)c1C(=O)NC1C(=O)N2C(C(=O)O)C(C)(C)S[C@H]12` (stereo partly drawn), the MRT is given as 0.92 h, the Vd is given as 0.11 L/kg and the clearance is given as 2 mL/min/kg. The half-life was 52.8 min.
In the case of `CCN(CC)CCNc1ccc(CNC=O)c2sc3ccc(OC)cc3c(=O)c12`, the MRT is listed as 5.4 h, the Vd is listed as 1.01 L/kg and the clearance is listed as 3.1 mL/min/kg. For the same compound, the half-life was 371 min.
For `CNC[C@H](O)CC12CCC(c3ccccc31)c1ccccc12`, the MRT is listed as 21.4 h, the Vd is listed as 18.8 L/kg and the clearance is listed as 14.6 mL/min/kg. For the same compound, the half-life was 1130 min.
In the case of `CC(C(=O)O)c1cccc(Oc2ccccc2)c1` (stereo not drawn), the MRT is listed as 2.8 h, the Vd is listed as 0.1 L/kg and the clearance is listed as 0.6 mL/min/kg. The half-life was 134 min and the fraction unbound was 0.02.
For `COc1ccccc1N1CCN(CCCNc2cc(=O)n(C)c(=O)n2C)CC1`, the MRT is given as 4 h, the Vd is given as 0.75 L/kg and the clearance is given as 3.1 mL/min/kg. For the same compound, the half-life was 210 min.
For `CN(C(=O)CO)c1c(I)c(C(=O)NC[C@H](O)CO)c(I)c(C(=O)NC[C@H](O)CO)c1I`, the MRT is given as 2.7 h, the Vd is given as 0.23 L/kg and the clearance is given as 1.4 mL/min/kg. For the same compound, the half-life was 138 min and the fraction unbound was 1.
In the case of `CC[C@@]1(O)C[C@H](O[C@@H]2C[C@H](N3CCOCC3)[C@H](O)[C@H](C)O2)c2c(O)c3c(c(O)c2[C@H]1O)C(=O)c1cccc(O)c1C3=O`, the MRT is given as 8 h, the Vd is given as 20.9 L/kg and the clearance is given as 42.8 mL/min/kg. The half-life was 642 min and the fraction unbound was 0.09.
In the case of `CC1(C)S[C@@H]2C(NC(=O)C(C(=O)O)c3ccccc3)C(=O)N2C1C(=O)O` (stereo partly drawn), the MRT is listed as 1.5 h, the Vd is listed as 0.17 L/kg and the clearance is listed as 1.9 mL/min/kg. For the same compound, the half-life was 66 min.
In the case of `CCOC(=O)C1=C(C)NC(C)=C(C(=O)OC)C1c1cccc([N+](=O)[O-])c1` (stereo not drawn), the MRT is listed as 4.1 h, the Vd is listed as 6.1 L/kg and the clearance is listed as 25 mL/min/kg. The half-life was 492 min and the fraction unbound was 0.02.
For `c1ccc(C2(c3ccccc3)CC2C2=NCCN2)cc1` (stereo not drawn), the MRT is given as 7.8 h, the Vd is given as 4.1 L/kg and the clearance is given as 8.6 mL/min/kg. For the same compound, the half-life was 438 min.
